In ChEMBL document CHEMBL1201862, “PubChem BioAssay data set” (2004):
Calls of active or inactive are those of the source.

What was measured:
Aspartyl aminopeptidase = biological target: T1, Aspartyl aminopeptidase (Plasmodium falciparum 3D7, UniProt Q8I2J3); test: Counterscreen for inhibitors of M1 and M17 aminopeptidases: QFRET-based biochemical high throughput dose response assay for inhibitors of the Plasmodium falciparum M18 Aspartyl Aminopeptidase (PFM18AAP). [Related PubChem assays: 1619 (Screening assay (M17LAP inhibitors).), 1445 (Screening assay (M1AAP inhibitors).)]
T1 sequence (Q8I2J3 whole entry): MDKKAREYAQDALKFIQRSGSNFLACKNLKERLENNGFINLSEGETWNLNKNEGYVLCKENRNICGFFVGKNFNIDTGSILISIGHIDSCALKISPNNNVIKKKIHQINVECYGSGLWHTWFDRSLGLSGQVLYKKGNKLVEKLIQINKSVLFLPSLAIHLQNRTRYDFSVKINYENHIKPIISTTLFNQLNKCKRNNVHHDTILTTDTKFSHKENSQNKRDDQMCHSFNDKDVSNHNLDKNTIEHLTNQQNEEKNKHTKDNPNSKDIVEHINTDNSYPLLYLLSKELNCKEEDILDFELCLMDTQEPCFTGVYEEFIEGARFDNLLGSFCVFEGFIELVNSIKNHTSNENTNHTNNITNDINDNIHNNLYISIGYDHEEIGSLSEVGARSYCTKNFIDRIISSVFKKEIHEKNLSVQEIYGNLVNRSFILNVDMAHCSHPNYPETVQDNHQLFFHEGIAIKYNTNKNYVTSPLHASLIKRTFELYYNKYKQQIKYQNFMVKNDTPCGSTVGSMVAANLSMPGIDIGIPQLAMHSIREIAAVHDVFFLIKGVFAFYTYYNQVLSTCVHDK

Procathepsin L = Procathepsin L (Homo sapiens, UniProt P07711); test: cathepsin L inhibitors, dose response, counter-screen for M1/M17 aminopeptidase inhibitor project, biochemical, QFRET, 1536-well (AID 2214)
Sequence of Procathepsin L (P07711 whole entry): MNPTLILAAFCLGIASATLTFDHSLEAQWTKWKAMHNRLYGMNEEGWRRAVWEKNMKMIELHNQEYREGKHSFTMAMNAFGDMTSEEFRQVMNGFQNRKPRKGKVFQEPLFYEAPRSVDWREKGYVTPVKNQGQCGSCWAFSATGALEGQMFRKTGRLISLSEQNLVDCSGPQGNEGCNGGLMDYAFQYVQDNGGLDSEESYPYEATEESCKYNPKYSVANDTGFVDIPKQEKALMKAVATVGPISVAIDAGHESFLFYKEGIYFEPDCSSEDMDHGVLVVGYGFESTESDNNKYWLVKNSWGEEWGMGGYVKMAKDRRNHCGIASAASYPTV

Leucine aminopeptidase = biological target: T2, Leucine aminopeptidase (Plasmodium falciparum 3D7, UniProt Q8IL11); test: P. falciparum M17LAP inhibitors, primary screen, biochemical, fluorogenic H-Leu-NHMec substrate, 1536-well (AID 1619); format: functional
T2 sequence (Q8IL11 whole entry): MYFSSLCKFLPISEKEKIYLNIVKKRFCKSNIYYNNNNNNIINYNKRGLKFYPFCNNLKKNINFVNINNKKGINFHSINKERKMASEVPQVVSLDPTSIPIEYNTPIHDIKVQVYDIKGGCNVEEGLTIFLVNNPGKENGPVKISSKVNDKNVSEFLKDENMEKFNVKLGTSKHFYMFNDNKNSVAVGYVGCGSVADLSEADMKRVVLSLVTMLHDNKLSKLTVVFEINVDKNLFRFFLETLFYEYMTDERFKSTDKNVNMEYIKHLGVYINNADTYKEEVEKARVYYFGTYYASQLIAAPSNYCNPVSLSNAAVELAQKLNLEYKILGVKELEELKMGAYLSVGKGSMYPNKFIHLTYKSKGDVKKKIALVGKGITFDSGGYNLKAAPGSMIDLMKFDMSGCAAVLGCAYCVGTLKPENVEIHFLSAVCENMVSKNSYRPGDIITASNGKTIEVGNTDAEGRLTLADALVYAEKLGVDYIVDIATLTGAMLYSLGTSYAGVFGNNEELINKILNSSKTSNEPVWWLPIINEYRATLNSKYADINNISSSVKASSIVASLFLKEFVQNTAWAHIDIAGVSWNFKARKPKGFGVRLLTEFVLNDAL

[1] = A cytotoxicity screen of small molecule inhibitors of the PhoP region in Salmonella typhi identified in the primary screen. [Related pubchem assays: 1850, 1864, 1985 ]; format: functional
[2] = biological target: T3, Alkaline phosphatase, tissue-nonspecific isozyme (Homo sapiens, UniProt P05186); test: human TNAP enzyme inhibitors, SAR follow-up, biochemical, luminescent, dose response (AID 1056)
T3 sequence (P05186 whole entry): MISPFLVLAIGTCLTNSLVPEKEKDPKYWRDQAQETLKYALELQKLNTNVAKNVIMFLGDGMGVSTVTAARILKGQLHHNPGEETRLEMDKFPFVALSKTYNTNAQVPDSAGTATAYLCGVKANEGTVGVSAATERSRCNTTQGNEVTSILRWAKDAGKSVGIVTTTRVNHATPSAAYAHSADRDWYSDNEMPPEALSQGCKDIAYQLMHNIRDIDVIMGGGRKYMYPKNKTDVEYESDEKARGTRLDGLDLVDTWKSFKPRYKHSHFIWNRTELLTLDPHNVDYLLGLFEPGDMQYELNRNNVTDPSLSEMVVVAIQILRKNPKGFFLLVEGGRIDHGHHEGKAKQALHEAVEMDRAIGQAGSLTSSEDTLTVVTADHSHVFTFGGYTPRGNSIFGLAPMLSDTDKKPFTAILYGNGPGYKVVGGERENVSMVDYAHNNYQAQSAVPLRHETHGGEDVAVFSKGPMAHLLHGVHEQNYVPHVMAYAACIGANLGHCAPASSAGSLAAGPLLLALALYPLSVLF

[3] = biological target: T4, Replicative DNA helicase DnaB (Mycobacterium tuberculosis, UniProt P9WMR3); test: DnaB intein splicing inhibitors, dose response, biochemical, cell-free fluorescence (AID 449749); format: functional
T4 sequence (P9WMR3 whole entry): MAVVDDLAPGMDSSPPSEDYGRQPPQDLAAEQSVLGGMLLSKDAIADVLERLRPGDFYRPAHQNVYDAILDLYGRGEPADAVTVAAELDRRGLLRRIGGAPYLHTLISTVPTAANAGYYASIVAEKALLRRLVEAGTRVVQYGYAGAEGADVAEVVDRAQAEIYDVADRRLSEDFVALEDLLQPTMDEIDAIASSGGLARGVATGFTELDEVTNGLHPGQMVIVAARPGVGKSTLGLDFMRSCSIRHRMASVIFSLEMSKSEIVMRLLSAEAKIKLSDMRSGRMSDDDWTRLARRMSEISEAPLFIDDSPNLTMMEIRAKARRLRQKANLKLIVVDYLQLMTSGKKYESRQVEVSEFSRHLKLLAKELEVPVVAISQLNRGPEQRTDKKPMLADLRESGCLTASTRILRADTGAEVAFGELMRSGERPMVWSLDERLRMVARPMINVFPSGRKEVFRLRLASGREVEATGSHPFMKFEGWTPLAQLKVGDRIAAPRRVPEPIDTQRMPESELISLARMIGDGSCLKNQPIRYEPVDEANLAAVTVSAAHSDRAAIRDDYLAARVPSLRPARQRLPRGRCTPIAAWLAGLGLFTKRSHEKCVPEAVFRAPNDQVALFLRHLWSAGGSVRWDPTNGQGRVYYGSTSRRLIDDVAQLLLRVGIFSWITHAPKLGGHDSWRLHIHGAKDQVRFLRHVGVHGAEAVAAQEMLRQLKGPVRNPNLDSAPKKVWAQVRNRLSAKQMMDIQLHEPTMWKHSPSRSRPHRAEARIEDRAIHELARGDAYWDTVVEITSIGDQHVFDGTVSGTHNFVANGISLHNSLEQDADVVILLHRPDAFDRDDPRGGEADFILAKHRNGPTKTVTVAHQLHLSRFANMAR

[4] = biological target: Glyceraldehyde-3-phosphate dehydrogenase (Homo sapiens, UniProt P04406)
Sequence of Glyceraldehyde-3-phosphate dehydrogenase (P04406 whole entry): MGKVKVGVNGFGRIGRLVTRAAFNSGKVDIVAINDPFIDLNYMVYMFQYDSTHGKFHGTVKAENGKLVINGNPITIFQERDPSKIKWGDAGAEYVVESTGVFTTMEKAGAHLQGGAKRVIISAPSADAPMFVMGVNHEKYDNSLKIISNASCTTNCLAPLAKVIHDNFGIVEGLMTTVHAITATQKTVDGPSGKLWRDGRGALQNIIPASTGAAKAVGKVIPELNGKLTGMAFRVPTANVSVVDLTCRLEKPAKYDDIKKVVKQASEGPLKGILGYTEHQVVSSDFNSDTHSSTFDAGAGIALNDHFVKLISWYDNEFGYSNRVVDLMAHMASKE

[5] = biological target: Alkaline phosphatase, placental type (Homo sapiens, UniProt P05187); test: PLAP enzyme inhibitors, confirmation, biochemical, luminescence (AID 1512); format: functional
Sequence of Alkaline phosphatase, placental type (P05187 whole entry): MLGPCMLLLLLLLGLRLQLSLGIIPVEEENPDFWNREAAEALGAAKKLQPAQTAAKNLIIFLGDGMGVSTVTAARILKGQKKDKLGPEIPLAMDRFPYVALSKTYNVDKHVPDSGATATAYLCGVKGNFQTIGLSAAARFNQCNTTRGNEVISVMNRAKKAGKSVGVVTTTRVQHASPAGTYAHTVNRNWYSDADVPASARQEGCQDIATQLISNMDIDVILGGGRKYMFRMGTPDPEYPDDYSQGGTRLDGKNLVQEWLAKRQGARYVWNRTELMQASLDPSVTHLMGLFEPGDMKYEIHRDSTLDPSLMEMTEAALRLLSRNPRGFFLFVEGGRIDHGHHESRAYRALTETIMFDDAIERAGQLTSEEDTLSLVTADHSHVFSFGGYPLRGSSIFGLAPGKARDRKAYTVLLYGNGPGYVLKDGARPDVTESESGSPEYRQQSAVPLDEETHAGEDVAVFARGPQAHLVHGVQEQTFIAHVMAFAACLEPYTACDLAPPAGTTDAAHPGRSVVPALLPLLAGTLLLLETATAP

Protein RecA = biological target: T5, Protein RecA (Mycobacterium tuberculosis, UniProt P9WHJ3); test: Fluorescence Cell-Free Homogeneous Dose Retest to Identify Inhibitors of RecA-Intein Splicing Activity. [Related pubchem assays (depositor defined):AID2097, AID2223, AID489010, AID492950]; format: functional
T5 sequence (P9WHJ3 whole entry): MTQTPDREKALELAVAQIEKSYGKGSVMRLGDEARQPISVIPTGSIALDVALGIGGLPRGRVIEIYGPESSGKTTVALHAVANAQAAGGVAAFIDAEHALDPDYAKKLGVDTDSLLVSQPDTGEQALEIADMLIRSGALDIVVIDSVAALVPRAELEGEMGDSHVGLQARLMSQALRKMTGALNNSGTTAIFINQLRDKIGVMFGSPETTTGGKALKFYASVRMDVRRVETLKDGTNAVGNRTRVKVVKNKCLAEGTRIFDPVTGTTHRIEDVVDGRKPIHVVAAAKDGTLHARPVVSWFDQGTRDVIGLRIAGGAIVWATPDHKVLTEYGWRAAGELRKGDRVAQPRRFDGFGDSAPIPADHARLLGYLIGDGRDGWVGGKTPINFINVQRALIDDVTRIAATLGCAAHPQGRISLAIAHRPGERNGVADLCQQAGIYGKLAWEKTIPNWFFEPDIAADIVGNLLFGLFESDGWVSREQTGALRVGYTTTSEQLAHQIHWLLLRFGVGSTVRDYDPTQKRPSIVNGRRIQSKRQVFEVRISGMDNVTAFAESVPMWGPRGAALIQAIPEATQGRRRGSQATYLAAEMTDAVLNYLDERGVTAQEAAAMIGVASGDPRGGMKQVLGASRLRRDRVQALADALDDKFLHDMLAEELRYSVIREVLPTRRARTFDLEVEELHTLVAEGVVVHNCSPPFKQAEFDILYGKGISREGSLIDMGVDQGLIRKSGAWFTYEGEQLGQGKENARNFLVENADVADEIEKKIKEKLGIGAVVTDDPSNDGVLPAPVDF

[6] = cytotoxicity in HPDE-C7 cells, cell-based, fluorescence, HTS (AID 430); format: functional; conditions: Homo sapiens
[7] = cytotoxicity in KRAS-transformed pancreatic duct cells, primary screen, cell-based, fluorescence, HTS (AID 431); format: functional; conditions: Homo sapiens;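 note: cell line used: HPDE-C7K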
[8] = system: Streptococcus sp. 'group A'; test: growth inhibition of control SK(-) GAS strain, dose response, counter-screen for streptokinase expression inhibitor project, luminescence, kanamycin, BacTiterGlo, confirmation (AID 1900); format: functional, organism-based
Streptococcus = test: Group A Streptococcus viability loss, dose response, counter-screen for streptokinase expression inhibitor project, luminescence, BacTiterGlo (AID 1915); format: functional, organism-based;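 note: potency for reduction of bacterial viability or growth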
cells = format: functional
[9] = C. albicans growth with fluconazole, confirmation, fluorescence, retest (AID 2467); format: functional, cell-based
[10] = NIH-3T3 fibroblast cytotoxicity, dose response, cytotoxicity control, cell-based, fluorescence, Alamar Blue, secondary assay (AID 2327); format: functional;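 note: NIH-3T3 mouse fibroblasts cultured with fluconazole at 8 µg/mL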
Cytochrome P450 2C9 = Cytochrome P450 2C9 (Homo sapiens, UniProt P11712)
Sequence of Cytochrome P450 2C9 (P11712 whole entry): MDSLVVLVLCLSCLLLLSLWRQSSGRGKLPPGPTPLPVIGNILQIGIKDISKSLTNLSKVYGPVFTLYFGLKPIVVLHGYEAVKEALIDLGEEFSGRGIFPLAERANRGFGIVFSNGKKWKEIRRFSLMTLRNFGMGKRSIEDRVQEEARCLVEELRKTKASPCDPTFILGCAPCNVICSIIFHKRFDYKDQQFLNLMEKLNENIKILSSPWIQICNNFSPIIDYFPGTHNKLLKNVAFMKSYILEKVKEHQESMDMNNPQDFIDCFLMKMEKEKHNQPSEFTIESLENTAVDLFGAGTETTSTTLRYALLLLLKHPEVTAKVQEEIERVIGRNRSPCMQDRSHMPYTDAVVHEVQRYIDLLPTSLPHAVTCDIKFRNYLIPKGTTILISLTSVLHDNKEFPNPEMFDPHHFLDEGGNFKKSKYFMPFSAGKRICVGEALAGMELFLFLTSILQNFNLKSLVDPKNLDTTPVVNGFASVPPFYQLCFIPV

[11] = biological target: Polyadenylate-binding protein 1 (Homo sapiens, UniProt P11940); test: PABP poly(A) RNA binding inhibitors, primary screen, biochemical, fluorescence polarization, uHTS (AID 2014)
Sequence of Polyadenylate-binding protein 1 (P11940 whole entry): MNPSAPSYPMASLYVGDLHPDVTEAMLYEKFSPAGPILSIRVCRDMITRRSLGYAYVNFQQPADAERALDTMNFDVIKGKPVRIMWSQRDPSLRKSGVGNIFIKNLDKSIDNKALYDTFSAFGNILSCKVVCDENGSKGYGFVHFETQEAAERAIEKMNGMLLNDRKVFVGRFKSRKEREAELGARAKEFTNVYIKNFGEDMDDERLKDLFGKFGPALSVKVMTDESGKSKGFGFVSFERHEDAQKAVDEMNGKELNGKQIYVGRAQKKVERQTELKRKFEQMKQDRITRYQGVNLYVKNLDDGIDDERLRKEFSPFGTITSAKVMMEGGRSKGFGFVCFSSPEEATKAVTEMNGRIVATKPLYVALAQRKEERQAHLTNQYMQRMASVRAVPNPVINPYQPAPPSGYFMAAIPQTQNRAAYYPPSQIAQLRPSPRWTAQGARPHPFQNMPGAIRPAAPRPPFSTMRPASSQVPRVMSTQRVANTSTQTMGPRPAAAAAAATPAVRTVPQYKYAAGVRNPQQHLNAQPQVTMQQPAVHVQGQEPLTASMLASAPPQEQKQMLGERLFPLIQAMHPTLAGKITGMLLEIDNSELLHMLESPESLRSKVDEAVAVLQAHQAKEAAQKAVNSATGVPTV

[12] = biological target: Eukaryotic translation initiation factor 4H (Homo sapiens, UniProt Q15056); test: human eIF4H binding inhibitors, primary screen, translation initiation inhibitor project, biochemical, uHTS, fluorescence polarization (AID 2012)
Cytochrome P450 2D6 = Cytochrome P450 2D6 (Homo sapiens, UniProt P10635);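 note: CYP2D6 member of a cytochrome P450 panel assay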
Sequence of Cytochrome P450 2D6 (P10635 whole entry): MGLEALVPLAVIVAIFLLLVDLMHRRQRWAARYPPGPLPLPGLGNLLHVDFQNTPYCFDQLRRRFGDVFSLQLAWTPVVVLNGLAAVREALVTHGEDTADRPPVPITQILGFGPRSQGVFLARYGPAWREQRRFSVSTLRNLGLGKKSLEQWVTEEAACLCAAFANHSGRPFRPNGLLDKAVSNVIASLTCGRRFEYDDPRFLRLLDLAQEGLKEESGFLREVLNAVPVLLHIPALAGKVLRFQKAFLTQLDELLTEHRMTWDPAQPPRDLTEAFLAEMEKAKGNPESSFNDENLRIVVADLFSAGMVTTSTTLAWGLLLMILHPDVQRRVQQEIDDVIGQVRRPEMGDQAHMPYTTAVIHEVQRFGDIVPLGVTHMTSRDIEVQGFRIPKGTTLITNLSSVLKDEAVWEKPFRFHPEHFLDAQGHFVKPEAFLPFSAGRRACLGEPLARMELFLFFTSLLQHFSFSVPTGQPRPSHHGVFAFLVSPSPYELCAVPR

Cytochrome P450 2C19 = Cytochrome P450 2C19 (Homo sapiens, UniProt P33261); test: Cytochrome panel assay with activity outcomes. Panel member name: p450-cyp2c19 Compounds with AC50 equal or less than 10 uM are considered active; format: functional; conditions: read-out: AC50
Sequence of Cytochrome P450 2C19 (P33261 whole entry): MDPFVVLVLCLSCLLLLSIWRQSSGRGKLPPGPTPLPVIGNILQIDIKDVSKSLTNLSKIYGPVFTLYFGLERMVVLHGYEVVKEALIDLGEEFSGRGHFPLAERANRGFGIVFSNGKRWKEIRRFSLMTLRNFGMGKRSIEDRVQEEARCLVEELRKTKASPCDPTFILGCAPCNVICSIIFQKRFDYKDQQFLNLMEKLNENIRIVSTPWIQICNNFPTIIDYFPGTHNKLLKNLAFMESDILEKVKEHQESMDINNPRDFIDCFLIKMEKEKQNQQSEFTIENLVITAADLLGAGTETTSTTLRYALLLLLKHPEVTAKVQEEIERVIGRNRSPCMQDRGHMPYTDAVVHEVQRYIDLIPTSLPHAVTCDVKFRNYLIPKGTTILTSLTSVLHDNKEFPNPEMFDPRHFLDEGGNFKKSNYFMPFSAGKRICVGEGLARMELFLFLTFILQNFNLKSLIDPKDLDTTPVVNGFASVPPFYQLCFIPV

Cytochrome P450 3A4 = Cytochrome P450 3A4 (Homo sapiens, UniProt P08684); conditions: Potency;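 note: confirmatory qHTS run detecting inhibitors and substrates of CYP3A4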
Sequence of Cytochrome P450 3A4 (P08684 whole entry): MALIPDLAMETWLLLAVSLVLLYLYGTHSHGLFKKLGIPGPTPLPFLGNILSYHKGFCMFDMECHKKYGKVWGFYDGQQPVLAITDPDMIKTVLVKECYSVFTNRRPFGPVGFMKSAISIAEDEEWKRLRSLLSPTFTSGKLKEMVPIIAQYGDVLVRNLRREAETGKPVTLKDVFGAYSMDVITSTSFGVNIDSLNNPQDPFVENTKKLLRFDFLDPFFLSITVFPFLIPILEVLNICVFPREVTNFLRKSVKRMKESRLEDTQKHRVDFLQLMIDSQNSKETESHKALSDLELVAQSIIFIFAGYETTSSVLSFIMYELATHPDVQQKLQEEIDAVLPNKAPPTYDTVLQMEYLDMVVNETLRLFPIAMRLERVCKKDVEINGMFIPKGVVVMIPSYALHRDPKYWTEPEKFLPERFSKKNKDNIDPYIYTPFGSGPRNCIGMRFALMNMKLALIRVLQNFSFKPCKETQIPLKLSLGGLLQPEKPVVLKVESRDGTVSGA

O=C(O)C1CC=CCC1C(=O)Nc1ccc(Oc2ccc(Cl)cc2)cc1 (stereo not given)
IC50 (Aspartyl aminopeptidase): > 73.5 µM (not active)
IC50 (Procathepsin L): > 59.6 µM (not active)
IC50 (Leucine aminopeptidase): 1.02 µM (active)

O=C(CN1C2=NCCN2c2ccccc21)c1ccc2c(c1)OCO2
EC50 [1]: > 50 µM (active)

O=C(O)CCCCCNC(=O)Nc1ccc2c(c1)OCCO2
IC50 (Aspartyl aminopeptidase): > 73.5 µM (not active)
IC50 (Procathepsin L): > 59.6 µM (not active)
IC50 (Leucine aminopeptidase): 5.51 µM (active)

Oc1cc(-c2cccc3ccccc23)[nH]n1
IC50 (Aspartyl aminopeptidase): > 73.5 µM (not active)
IC50 [2]: 3.87 µM (active)
AC50 [3]: 2.39 µM (active)
IC50 (Procathepsin L): > 59.6 µM (not active)
IC50 (Leucine aminopeptidase): 2.9 µM (active)
IC50 [4]: > 100 µM (not active)
IC50 [5]: > 10 µM (inactive)
EC50 (Protein RecA): 0.834 µM (active)

N#Cc1c(NC(=O)CSc2n[nH]c(Cc3ccccc3)n2)oc(-c2ccccc2)c1-c1ccccc1
EC50 [6]: 4.13 µM (active)
EC50 [7]: 5.24 µM (active)
EC50 [8]: 4.97 µM (active)
EC50 (Streptococcus): 36.5 µM (active)

CCCCCCCC(=O)N/N=C/c1ccc([N+](=O)[O-])o1
EC50 [1]: > 50 µM (active)
IC50 (cells): 2.63 µM (active)
EC50 [9]: 2.88 µM (active)
EC50 [10]: > 160 µM (inactive)

CC1=C(C(=O)OCc2ccccc2)C(c2ccccc2)NC(=O)N1CCCCCC(=O)O (stereo not given)
AC50 (Cytochrome P450 2C9): 25.1 µM (inconclusive)
IC50 [11]: 29.9 µM (active)
IC50 [12]: 78.5 µM (active)
AC50 (Cytochrome P450 2D6): 39.8 µM (inconclusive)
AC50 (Cytochrome P450 2C19): 39.8 µM (inconclusive)

Cc1cc(C)c(N)cc1C
AC50 (Cytochrome P450 3A4): 39.8 µM (inconclusive)

O=c1c(-c2cc(O)c(O)c(O)c2)coc2cc(O)c(O)c(O)c12 [IRIGENOL]
AC50 (Cytochrome P450 3A4): 25.1 µM (inconclusive)
